These results are taken from patent US20240269139A1, “COMPOUNDS FOR TARGETED PROTEIN DEGRADATION OF KINASES” (DANA-FARBER CANCER INSTITUTE, INC., priority 2020, published 2024).

Like-named read-outs stand apart in the source and are kept apart here.

Type in all cases: cell-based
The target of experiment [1] is protein kinases (human kinome) (Homo sapiens, UniProt O00764). To be noted: protein PDXK (O00764-1); experiment wp117; down.
Experiment [2] addresses T1, protein kinases (human kinome) (Homo sapiens, UniProt P78356).
T1 sequence (P78356 1-416): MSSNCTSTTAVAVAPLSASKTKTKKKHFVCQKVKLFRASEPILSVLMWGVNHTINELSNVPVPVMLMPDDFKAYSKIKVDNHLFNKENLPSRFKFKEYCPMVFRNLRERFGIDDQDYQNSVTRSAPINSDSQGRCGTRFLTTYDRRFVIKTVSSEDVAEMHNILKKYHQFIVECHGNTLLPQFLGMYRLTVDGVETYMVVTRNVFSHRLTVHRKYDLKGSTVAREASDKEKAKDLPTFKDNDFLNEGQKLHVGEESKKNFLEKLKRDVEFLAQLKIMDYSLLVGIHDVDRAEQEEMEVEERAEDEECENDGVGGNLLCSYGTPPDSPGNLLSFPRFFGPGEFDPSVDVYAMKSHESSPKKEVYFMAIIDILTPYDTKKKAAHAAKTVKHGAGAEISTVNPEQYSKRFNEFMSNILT
The note with it: PIP4K2B (P78356).

Experiment [3] addresses protein kinases (human kinome) (Homo sapiens, UniProt Q15759). To be noted: for logFC MAPK11 (Q15759): direction of change down; for logFC: MAPK11 (Q15759).
The target of experiment [4] is protein kinases (human kinome) (Homo sapiens, UniProt P48736).
For experiment [5], the target named is protein kinases (human kinome) (Homo sapiens, UniProt Q6JQN1). To be noted: ACAD10 (Q6JQN1); experiment wp056.
Experiment [6] deals with protein kinases (human kinome) (Homo sapiens, UniProt Q15120). The note with it: experiment wp160, 1 hr.
In experiment [7] the target is T2, protein kinases (human kinome) (Homo sapiens, UniProt Q96S38).
T2 sequence (Q96S38 1-1066): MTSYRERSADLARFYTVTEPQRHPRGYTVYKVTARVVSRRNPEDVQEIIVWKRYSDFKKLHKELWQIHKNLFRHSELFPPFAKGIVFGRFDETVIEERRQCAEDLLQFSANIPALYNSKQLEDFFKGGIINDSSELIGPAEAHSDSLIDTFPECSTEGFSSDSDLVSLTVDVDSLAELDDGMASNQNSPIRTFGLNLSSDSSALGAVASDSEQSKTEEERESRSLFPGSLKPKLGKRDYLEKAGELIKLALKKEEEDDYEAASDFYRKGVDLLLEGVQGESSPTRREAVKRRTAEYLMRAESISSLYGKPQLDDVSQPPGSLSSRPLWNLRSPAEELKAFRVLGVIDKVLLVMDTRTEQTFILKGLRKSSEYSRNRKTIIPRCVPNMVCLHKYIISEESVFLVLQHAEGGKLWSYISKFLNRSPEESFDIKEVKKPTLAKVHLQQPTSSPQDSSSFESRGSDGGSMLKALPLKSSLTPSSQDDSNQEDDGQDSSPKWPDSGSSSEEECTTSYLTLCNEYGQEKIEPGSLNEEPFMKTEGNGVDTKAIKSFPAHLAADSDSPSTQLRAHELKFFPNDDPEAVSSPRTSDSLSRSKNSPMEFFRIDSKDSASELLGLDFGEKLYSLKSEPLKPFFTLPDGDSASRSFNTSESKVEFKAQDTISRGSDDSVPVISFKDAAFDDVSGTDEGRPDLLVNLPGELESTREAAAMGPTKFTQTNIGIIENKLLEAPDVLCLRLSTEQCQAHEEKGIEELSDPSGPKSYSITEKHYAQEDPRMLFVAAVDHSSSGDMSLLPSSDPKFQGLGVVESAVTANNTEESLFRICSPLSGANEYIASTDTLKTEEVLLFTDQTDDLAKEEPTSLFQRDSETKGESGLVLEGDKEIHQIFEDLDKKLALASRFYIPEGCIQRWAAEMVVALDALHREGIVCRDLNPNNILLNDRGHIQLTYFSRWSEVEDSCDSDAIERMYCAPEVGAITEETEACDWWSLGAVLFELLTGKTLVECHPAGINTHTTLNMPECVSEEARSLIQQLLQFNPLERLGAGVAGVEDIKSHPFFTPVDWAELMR
To be noted: for logFC RPS6KC1 (Q96S38): direction of change down; for logFC: RPS6KC1 (Q96S38).

In experiment [8] the target is protein kinases (human kinome) (Homo sapiens, UniProt Q8TCT0). To be noted: protein CERK (Q8TCT0); experiment wp131; down.
Experiment [9] concerns the target protein kinases (human kinome) (Homo sapiens, UniProt Q8TF76). To be noted: experiment wp137.
The target in experiment [10] is protein kinases (human kinome) (Homo sapiens, UniProt Q8TEA7). The note with it: experiment wp056.
Chain of protein kinases (human kinome) (Homo sapiens, UniProt Q8TEA7) (Q8TEA7 whole entry): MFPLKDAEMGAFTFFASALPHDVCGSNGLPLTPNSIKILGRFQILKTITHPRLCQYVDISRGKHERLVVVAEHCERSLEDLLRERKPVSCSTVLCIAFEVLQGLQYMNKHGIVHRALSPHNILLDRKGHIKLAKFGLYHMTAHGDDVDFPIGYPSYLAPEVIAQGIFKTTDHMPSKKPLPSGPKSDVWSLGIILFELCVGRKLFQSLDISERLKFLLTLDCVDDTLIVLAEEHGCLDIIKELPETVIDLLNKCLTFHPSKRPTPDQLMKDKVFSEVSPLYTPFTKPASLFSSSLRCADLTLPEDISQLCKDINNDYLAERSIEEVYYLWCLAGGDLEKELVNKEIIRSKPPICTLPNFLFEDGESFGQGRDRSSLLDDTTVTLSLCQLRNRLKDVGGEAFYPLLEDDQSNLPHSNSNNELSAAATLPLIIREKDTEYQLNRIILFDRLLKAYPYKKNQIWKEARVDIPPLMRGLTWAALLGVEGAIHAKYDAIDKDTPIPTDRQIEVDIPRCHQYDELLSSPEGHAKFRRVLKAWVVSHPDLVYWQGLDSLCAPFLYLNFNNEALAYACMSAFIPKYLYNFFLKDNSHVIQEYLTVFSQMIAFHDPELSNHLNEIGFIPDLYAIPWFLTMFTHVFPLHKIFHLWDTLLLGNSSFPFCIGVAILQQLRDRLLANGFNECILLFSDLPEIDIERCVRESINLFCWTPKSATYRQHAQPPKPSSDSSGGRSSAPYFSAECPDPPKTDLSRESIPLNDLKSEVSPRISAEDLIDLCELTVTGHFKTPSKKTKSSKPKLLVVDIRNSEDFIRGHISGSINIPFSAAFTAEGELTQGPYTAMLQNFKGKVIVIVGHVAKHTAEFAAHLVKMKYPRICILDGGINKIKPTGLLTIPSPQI

Chain of protein kinases (human kinome) (Homo sapiens, UniProt Q15759) (Q15759 whole entry): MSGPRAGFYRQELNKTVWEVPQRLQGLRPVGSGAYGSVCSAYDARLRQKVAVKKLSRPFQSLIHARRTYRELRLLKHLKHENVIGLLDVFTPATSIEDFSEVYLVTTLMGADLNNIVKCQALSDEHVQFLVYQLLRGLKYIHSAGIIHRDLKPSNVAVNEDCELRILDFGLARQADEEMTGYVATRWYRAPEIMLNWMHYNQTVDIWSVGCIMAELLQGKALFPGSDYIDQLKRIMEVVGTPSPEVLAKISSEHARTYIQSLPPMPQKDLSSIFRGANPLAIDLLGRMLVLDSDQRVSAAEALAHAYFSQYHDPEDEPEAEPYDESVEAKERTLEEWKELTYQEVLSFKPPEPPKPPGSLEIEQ
Chain of protein kinases (human kinome) (Homo sapiens, UniProt Q8TF76) (Q8TF76 whole entry): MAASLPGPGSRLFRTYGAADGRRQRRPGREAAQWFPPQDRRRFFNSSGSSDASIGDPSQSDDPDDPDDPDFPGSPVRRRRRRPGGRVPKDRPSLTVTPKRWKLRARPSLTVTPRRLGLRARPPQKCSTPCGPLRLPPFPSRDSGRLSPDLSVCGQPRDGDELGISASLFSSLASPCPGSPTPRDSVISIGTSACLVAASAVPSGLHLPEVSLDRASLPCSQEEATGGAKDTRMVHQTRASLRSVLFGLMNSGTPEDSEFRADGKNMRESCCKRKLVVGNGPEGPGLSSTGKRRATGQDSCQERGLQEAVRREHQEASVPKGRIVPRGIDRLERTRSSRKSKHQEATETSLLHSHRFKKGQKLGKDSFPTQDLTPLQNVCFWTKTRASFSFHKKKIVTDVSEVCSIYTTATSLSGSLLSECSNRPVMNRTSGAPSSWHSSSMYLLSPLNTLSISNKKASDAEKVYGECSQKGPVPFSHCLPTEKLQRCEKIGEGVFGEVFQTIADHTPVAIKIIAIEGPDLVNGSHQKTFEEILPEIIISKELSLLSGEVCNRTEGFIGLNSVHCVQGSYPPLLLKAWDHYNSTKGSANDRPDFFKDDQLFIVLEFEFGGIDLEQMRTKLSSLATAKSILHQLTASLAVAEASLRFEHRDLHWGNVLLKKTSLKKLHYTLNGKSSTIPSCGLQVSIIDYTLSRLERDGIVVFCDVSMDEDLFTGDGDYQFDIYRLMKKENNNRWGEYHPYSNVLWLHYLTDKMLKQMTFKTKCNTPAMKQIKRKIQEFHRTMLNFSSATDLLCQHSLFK
Chain of protein kinases (human kinome) (Homo sapiens, UniProt P48736) (P48736 whole entry): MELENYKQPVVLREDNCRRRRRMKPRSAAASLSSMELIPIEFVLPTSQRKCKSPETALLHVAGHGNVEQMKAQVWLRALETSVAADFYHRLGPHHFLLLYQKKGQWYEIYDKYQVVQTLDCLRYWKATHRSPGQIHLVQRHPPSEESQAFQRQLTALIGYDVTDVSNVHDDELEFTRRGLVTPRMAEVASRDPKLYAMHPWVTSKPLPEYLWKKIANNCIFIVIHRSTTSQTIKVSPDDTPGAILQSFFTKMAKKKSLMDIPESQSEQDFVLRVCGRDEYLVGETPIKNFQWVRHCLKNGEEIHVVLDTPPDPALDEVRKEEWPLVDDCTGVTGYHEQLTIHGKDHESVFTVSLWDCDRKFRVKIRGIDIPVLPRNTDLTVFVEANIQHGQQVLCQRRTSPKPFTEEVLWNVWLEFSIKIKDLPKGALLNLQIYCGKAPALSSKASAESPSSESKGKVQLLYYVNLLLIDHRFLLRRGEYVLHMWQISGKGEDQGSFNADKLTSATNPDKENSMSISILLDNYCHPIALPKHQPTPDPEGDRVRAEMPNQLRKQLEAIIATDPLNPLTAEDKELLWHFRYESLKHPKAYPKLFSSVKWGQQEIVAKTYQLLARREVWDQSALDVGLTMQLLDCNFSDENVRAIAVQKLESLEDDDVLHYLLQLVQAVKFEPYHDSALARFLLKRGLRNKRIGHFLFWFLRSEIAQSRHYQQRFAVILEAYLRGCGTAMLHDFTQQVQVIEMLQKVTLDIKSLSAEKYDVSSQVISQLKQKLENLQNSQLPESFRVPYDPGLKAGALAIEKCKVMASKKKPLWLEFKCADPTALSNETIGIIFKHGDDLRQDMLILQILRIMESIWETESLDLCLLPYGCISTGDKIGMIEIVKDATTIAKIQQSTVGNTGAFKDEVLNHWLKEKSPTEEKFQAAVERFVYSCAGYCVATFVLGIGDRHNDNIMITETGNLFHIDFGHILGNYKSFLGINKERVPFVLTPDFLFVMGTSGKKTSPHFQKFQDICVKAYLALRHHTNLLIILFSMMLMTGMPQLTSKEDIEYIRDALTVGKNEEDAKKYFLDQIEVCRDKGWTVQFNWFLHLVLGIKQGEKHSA
Chain of protein kinases (human kinome) (Homo sapiens, UniProt Q15120) (Q15120 whole entry): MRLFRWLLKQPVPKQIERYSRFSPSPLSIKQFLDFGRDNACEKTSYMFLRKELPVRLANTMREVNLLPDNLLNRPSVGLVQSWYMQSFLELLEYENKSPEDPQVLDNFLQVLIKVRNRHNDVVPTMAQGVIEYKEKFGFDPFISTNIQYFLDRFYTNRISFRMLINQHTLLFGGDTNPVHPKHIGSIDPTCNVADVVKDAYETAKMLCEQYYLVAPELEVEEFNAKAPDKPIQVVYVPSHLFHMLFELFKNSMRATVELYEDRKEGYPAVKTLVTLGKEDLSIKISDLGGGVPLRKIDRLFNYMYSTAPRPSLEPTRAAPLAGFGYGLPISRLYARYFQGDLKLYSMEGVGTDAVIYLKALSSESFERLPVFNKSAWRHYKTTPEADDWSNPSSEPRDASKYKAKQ
Chain of protein kinases (human kinome) (Homo sapiens, UniProt O00764) (O00764 whole entry): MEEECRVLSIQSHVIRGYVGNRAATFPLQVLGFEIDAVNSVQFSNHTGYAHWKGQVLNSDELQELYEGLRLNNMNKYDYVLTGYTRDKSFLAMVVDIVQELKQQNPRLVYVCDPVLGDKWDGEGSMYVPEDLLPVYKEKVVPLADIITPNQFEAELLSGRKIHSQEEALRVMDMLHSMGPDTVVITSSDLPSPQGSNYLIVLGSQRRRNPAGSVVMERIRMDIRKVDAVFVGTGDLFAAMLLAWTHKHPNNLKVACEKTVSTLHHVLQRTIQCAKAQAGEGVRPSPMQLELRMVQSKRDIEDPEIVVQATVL
Chain of protein kinases (human kinome) (Homo sapiens, UniProt Q8TCT0) (Q8TCT0 whole entry): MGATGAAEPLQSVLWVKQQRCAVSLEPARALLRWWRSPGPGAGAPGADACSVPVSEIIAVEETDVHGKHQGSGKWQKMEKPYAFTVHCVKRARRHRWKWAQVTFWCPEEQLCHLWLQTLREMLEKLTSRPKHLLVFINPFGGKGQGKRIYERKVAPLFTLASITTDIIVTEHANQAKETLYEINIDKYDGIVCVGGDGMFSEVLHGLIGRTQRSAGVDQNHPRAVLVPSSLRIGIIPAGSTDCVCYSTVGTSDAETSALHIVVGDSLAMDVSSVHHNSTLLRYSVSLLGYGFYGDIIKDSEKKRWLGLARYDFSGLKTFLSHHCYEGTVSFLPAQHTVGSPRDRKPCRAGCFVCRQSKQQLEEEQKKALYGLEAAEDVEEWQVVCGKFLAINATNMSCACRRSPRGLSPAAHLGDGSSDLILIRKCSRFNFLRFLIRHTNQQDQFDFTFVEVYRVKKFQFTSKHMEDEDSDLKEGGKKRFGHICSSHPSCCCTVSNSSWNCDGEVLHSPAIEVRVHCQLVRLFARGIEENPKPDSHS

As for `CS(=O)(=O)Nc1cccc(-c2csc3cnc(Nc4ccc(N5CCN(CCCCCOc6cccc7c6C(=O)N(C6CCC(=O)NC6=O)C7=O)CC5)cc4)nc23)c1` (centres unmarked) [DB0614, N-(3-(2-((4-(4-(5-((2-(2,6-Dioxopiperidin-3-yl)-1,3-dioxoisoindolin-4-yl)oxy)pentyl)piperazin-1-yl)phenyl)amino)thieno[3,2-d]pyrimidin-7-yl)phenyl)methanesulfonamide], in experiment [1], the “logFC PDXK” value is listed as −0.3964.
Take `Cc1ccc(NC(=O)c2cccc(C(F)(F)F)c2)cc1N1Cc2cnc(Nc3ccc(N4CCN(Cc5cn(CCCCCOc6cccc7c6C(=O)N(C6CCC(=O)NC6=O)C7=O)nn5)CC4)nc3)nc2N(C)C1=O` (centres unmarked) [DB0646, N-(3-(7-((6-(4-((1-(5-((2-(2,6-Dioxopiperidin-3-yl)-1,3-dioxoisoindolin-4-yl)oxy)pentyl)-1H-1,2,3-triazol-4-yl)methyl)piperazin-1-v)pyridin-3-yl)amino)-1-methyl-2-oxo-1,4-dihydropyrimido[4,5-d]pyrimidin-3(2H)-yl)-4-methylphenyl)-3-(trifluoromethyl)benzamide]: the logFC in [2] (experiment wp045) is −1.296; in [2] (experiment wp103), −0.6848; in experiment [2] (experiment wp107) it was −1.024; in experiment [2] (experiment wp117) it was −1.027; in experiment [2] (experiment wp152), −1.147; in experiment [2] (experiment wp160, 4 hr), −0.5025. Besides, the logFC is −0.8848 in experiment [2] (experiment wp160, 8 hr); −0.3998 in experiment [3] (experiment wp105); −0.6209 in experiment [3] (experiment wp114). The “logFC MAPK11 (Q15759)” value is given as −0.3998 in experiment [3] (Experiment wp105) and −0.6209 in [3] (Experiment wp114).
On to `O=C1CCC(N2C(=O)c3cccc(NCCCCCCCCN4CCC(NC(=O)c5[nH]ncc5NC(=O)c5c(Cl)cccc5Cl)CC4)c3C2=O)C(=O)N1` (centres unmarked) [MFH.5.126.1], for which, in experiment [4] (Experiment wp076, direction of change down), the “logFC PIK3CG (P48736)” value is recorded as −0.3735. Besides, the logFC in experiment [4] (PIK3CG (P48736), experiment wp076) was −0.3735.
For `Cc1ccc(C(=O)Nc2ccc(CN3CCN(CCCOCCOCCOCCNC(=O)COc4cccc5c4C(=O)N(C4CCC(=O)NC4=O)C5=O)CC3)c(C(F)(F)F)c2)cc1C#Cc1cnc2cccnn12` (centres unmarked) [SB1.G.187], in [5], the logFC is −0.3838.
Take `CC(C)S(=O)(=O)c1ccccc1Nc1nc(Nc2ccc(N3CCN(CCOCCNC(=O)CNc4cccc5c4C(=O)N(C4CCC(=O)NC4=O)C5=O)CC3)cc2)ncc1Cl` (centres unmarked) [SK.3.91]: in [6], the “logFC PDK3 (Q15120-1)” value is given as −0.9801 and the “logFC of PDK3 (Q15120-1)” value is given as −0.9801. The “logFC RPS6KC1 (Q96S38)” value in experiment [7] (Experiment wp105) is −0.3327. Moreover, the logFC in experiment [7] (experiment wp105) is reported as −0.3327. Further, in experiment [7] (experiment wp107), the logFC is reported as −0.3623 and the “logFC RPS6KC1 (Q96S38)” value is reported as −0.3623.
Turning to `CC(C)S(=O)(=O)c1ccccc1Nc1nc(Nc2ccc(N3CCN(CCOCCOCCNC(=O)CNc4cccc5c4C(=O)N(C4CCC(=O)NC4=O)C5=O)CC3)cc2)ncc1Cl` (centres unmarked) [TL12.186], in experiment [8], the “logFC CERK” value was −0.3343. Besides, the “logFC HASPIN (Q8TF76-1)” value in experiment [9] (direction of change down) is listed as −0.368. The “logFC HASPIN” value in experiment [9] (protein HASPIN (QSTF76-1), down) is given as −0.368.
Regarding `C=CCn1c(=O)c2cnc(Nc3ccc(N4CCN(CCCNc5cccc6c5C(=O)N(C5CCC(=O)NC5=O)C6=O)CC4)cc3)nc2n1-c1cccc(C(C)(C)O)n1` (centres unmarked) [ZNL.02.096], the “logFC TBCK (Q8TEA7)” value in experiment [10] (direction of change down) is on record as −0.3334. Besides, the “logFC TBCK” value in [10] (protein TBCK (QSTEA7), down) was −0.3334.
